{"source": "patent US20120301562A1", "about": "“COMPOSITION FOR IMPROVING BLOOD CIRCULATION, CONTAINING EXTRACT OF LINDERA OBTUSILOBA AS ACTIVE INGREDIENT” (priority 2009, published 2012)", "key": {"thromboembolism": {"system": "thromboembolism", "test": "Inhibitory effect on thromboembolism induced by collagen and epinephrine injected into the tail vein", "format": "in vivo, mouse", "settings": "oral administration 1 h prior to collagen + epinephrine injection, mice", "procedure": "Experimental thrombosis induction in animals was based on Diminno's method. When a platelet aggregation inducer is injected into a tail vein of a mouse, a large amount of thrombus formation is induced in the pulmonary artery to kill the animal, and by observing whether this can be recovered or not, the inhibition extent of thrombus formation is measured. A mixture solution of collagen (Chrono-Log, […]) and epinephrine (Chrono-Log, 2 μg/mouse) was prepared to be contained in 200 μL of physiological saline as a platelet aggregation inducer and injected into the tail vein of mice. Extract suspension or physiological saline was orally administered in proportion to body weight at 1 h prior to injection of the platelet aggregation inducer to investigate antithrombotic effect. The antithrombotic effect was calculated as percentage of the number of experimental animals protected from hind leg paralysis or death induced by the injection of platelet aggregation inducer. Antithrombotic effect of extracts was determined by observing whether recovery from the persistence of paralysis for 15 min or longer after injection, death, or paralysis occurred or not. The survival rate (%) of each group was calculated with the following equation.\nThe survival rate (%)=(D/C)×100 [Equation 2] • C: the number of animals to which collagen was precisely injected. • D: the number of survived animals among animals to which collagen was precisely injected."}, "[1]": {"system": "platelet aggregation induced by ADP", "test": "Inhibition of rat washed platelet aggregation induced by ADP (turbidimetric)", "format": "cell-based", "settings": "ADP 22 μM, rat washed platelets", "quoted_text": "(§1) Rats were paralyzed with ethyl ether and blood samples were collected from abdominal aorta with a syringe containing anticoagulant 0.15 M sodium citrate whose volume ratio is 1:9 compared with blood sample volume. Blood samples were centrifuged at 200×g for 10 min to obtain platelet rich plasma (PRP) as supernatant. PRP was centrifuged at 800×g for 15 min, and precipitated platelets were washed two times with a washing buffer (137 mM NaCl, 2.9 mM KCl, 1 mM MgCl2, 5 mM glucose, 12 mM NaHCO3, 0.34 mM Na2HPO4, 1 mM EDTA, 20 mM HEPES, 0.25% BSA, pH 7.4) and suspended in a suspension buffer (suspension buffer. 137 mM NaCl, 2.9 mM KCl, 1 mM MgCl2, 5 mM glucose, 12 mM NaHCO3, 0.34 mM Na2HPO4, 20 mM HEPES, 0.25% BSA, pH 7.4) to prepare washed platelets. Platelet numbers of washed platelets used in measurement of inhibitory effect on platelet aggregation were counted with a cell counter (cell counter. Hema-vet HV950FS, Drew Scientific, USA), and washed platelets were diluted with a buffer solution so as to adjust the platelet count to 3×10^8 platelets/mL. Since platelets are aggregated at low temperatures, the foregoing experiment was carried out at room temperature.\n(§2) Inhibitory effect on rat platelet aggregation was measured by turbidimetric method using an aggrerometer (Chrono-Log Co., Ltd., Havertown, Pa., USA). Washed platelets were incubated at 37° C. for 3 min and treated with various concentrations of extracts. After 2 min, platelet aggregation was induced by a platelet aggregation-inducing substance, ADP (22 μM) or collagen (20 μg/mL). Platelet aggregation was measured for 10 min and the inhibition extent of platelet aggregation was calculated. Platelets which were not treated with extracts were used for control, and the inhibition extent of platelet aggregation was calculated using the following equation.\n(§3) The inhibition extent of platelet aggregation=[(A−B)/A]×100 [Equation 1] • A: aggregation % of control • B: aggregation % of extract-treated platelets"}, "[2]": {"system": "platelet aggregation induced by collagen", "test": "Inhibition of rat washed platelet aggregation induced by collagen (turbidimetric)", "format": "cell-based", "settings": "collagen 20 μg/mL, rat washed platelets", "quoted_text": "as §1, §2, §3"}}, "data": [{"smiles": "CC(=O)Oc1ccccc1C(=O)O", "note": "[Aspirin]", "values": [{"measurement": "1st (survived animals/injected animals, D/C)", "setting": "thromboembolism; 1st experiment", "result": "15/19"}, {"measurement": "2nd (survived animals/injected animals, D/C)", "setting": "thromboembolism; 2nd experiment", "result": "9/20"}, {"measurement": "3rd (survived animals/injected animals, D/C)", "setting": "thromboembolism; 3rd experiment", "result": "9/19"}, {"measurement": "Survival rate (%)", "setting": "thromboembolism; (D/C)×100", "result": 56, "unit": "%"}, {"measurement": "Sum (D/C)", "setting": "thromboembolism; sum of three experiments", "result": "33/58"}, {"measurement": "inhibition at 100 µg/mL", "setting": "[1]; final concentration 0.1 mg/mL", "result": 15.9, "unit": "%"}, {"measurement": "inhibition at 1000 µg/mL", "setting": "[1]; final concentration 1 mg/mL", "result": 52.3, "unit": "%"}, {"measurement": "inhibition at 10000 µg/mL", "setting": "[1]; final concentration 10 mg/mL", "result": 93.2, "unit": "%"}, {"measurement": "inhibition at 100 µg/mL", "setting": "[2]; final concentration 0.1 mg/mL", "result": 18.5, "unit": "%"}, {"measurement": "inhibition at 1000 µg/mL", "setting": "[2]; final concentration 1 mg/mL", "result": 51.9, "unit": "%"}, {"measurement": "inhibition at 10000 µg/mL", "setting": "[2]; final concentration 10 mg/mL", "result": 94.4, "unit": "%"}]}]}
